Laboratory results: ChEMBL document CHEMBL1201862, “PubChem BioAssay data set” (2004)
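Interpolation was linear, between the two tested concentrations surrounding the appropriate level; five concentrations were tested over 48 hours in 96-well plates. GI50: concentration for 50% inhibition of growth.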 Calls of active or inactive are those of the source. No stated cut-off is given here; in the data, active = GI50 up to about 1.1 µM and inactive = higher.

How the values were obtained:
Test in all cases: NCI anticancer screen, dose series, 48 h
A549 = tested on: A549
CAKI-1 = tested on: CAKI-1
HOP-92 = tested on: HOP-92
NCI-H23 = tested on: NCI-H23
SK-OV-3 = tested on: SK-OV-3
TK-10 = tested on: TK-10
786-0 = tested on: 786-0
A498 = tested on: A498
ACHN = tested on: ACHN
CCRF-CEM = tested on: CCRF-CEM
COLO 205 = tested on: COLO 205
DU-145 = tested on: DU-145
EKVX = tested on: EKVX
HCC 2998 = tested on: HCC 2998
HCT-116 = tested on: HCT-116
HCT-15 = tested on: HCT-15
HL-60 = tested on: HL-60
HOP-62 = tested on: HOP-62
HT-29 = tested on: HT-29
Hs-578T = tested on: Hs-578T
IGROV-1 = tested on: IGROV-1
K562 = tested on: K562
KM12 = tested on: KM12
LOX IMVI = tested on: LOX IMVI
M14 = tested on: M14
MDA-MB-231 = tested on: MDA-MB-231
MDA-MB-435 = tested on: MDA-MB-435
MDA-N = tested on: MDA-N
MOLT-4 = tested on: MOLT-4
Malme-3M = tested on: Malme-3M
NCI-H226 = tested on: NCI-H226
NCI-H460 = tested on: NCI-H460
NCI-H522 = tested on: NCI-H522
NCI/ADR-RES = tested on: NCI/ADR-RES
OVCAR-3 = tested on: OVCAR-3
OVCAR-4 = tested on: OVCAR-4
OVCAR-5 = tested on: OVCAR-5
OVCAR-8 = tested on: OVCAR-8
PC-3 = tested on: PC-3
RPMI-8226 = tested on: RPMI-8226
RXF 393 = tested on: RXF 393
SF-268 = tested on: SF-268
SF-295 = tested on: SF-295
SF-539 = tested on: SF-539
SK-MEL-28 = tested on: SK-MEL-28
SK-MEL-2 = tested on: SK-MEL-2
SK-MEL-5 = tested on: SK-MEL-5
SN12C = tested on: SN12C
SNB-19 = tested on: SNB-19
SNB-75 = tested on: SNB-75
SR = tested on: SR
SW-620 = tested on: SW-620
T47D = tested on: T47D
U-251 = tested on: U-251
UACC-257 = tested on: UACC-257
UACC-62 = tested on: UACC-62
UO-31 = tested on: UO-31
MCF7 = tested on: MCF7

CC(C)(/N=N/C(C)(C)C1=NCCN1)C1=NCCN1
GI50 (A549): > 100 µM (inactive) | GI50 (CAKI-1): > 100 µM (inactive) | GI50 (HOP-92): > 100 µM (inactive) | GI50 (NCI-H23): > 100 µM (inactive) | GI50 (SK-OV-3): > 100 µM (inactive) | GI50 (TK-10): > 100 µM (inactive)

O=[N+]([O-])c1ccc2[nH]nc(OCc3ccccc3Cl)c2c1
GI50 (786-0): 25 µM (inactive) | GI50 (A498): 37.5 µM (inactive) | GI50 (A549): 39.4 µM (inactive) | GI50 (ACHN): 19.8 µM (inactive) | GI50 (CAKI-1): 50.4 µM (inactive) | GI50 (CCRF-CEM): > 100 µM (inactive) | GI50 (COLO 205): > 100 µM (inactive) | GI50 (DU-145): 50.7 µM (inactive) | GI50 (EKVX): 54.2 µM (inactive) | GI50 (HCC 2998): 59.6 µM (inactive) | GI50 (HCT-116): 27.4 µM (inactive) | GI50 (HCT-15): 85.5 µM | GI50 (HL-60): > 100 µM (inactive) | GI50 (HOP-62): 37.8 µM (inactive) | GI50 (HOP-92): 20.5 µM (inactive) | GI50 (HT-29): > 100 µM (inactive) | GI50 (Hs-578T): 42.3 µM (inactive) | GI50 (IGROV-1): 91.2 µM (inactive) | GI50 (K562): > 100 µM (inactive) | GI50 (KM12): 91.4 µM (inactive) | GI50 (LOX IMVI): 28.6 µM (inactive) | GI50 (M14): > 100 µM (inactive) | GI50 (MDA-MB-231): > 100 µM (inactive) | GI50 (MDA-MB-435): > 100 µM (inactive) | GI50 (MDA-N): > 100 µM (inactive) | GI50 (MOLT-4): 63.5 µM (inactive) | GI50 (Malme-3M): 98.9 µM (inactive) | GI50 (NCI-H226): 68.5 µM (inactive) | GI50 (NCI-H23): 31.9 µM (inactive) | GI50 (NCI-H460): 35.5 µM (inactive) | GI50 (NCI-H522): 17.1 µM (inactive) | GI50 (NCI/ADR-RES): 25 µM (inactive) | GI50 (OVCAR-3): 23.4 µM (inactive) | GI50 (OVCAR-4): 41.3 µM (inactive) | GI50 (OVCAR-5): 52.6 µM (inactive) | GI50 (OVCAR-8): 27 µM (inactive) | GI50 (PC-3): > 100 µM (inactive) | GI50 (RPMI-8226): > 100 µM (inactive) | GI50 (RXF 393): 18.2 µM (inactive) | GI50 (SF-268): 68.7 µM (inactive) | GI50 (SF-295): 42.6 µM (inactive) | GI50 (SF-539): 22.4 µM (inactive) | GI50 (SK-MEL-28): > 100 µM (inactive) | GI50 (SK-MEL-2): 27.2 µM (inactive) | GI50 (SK-MEL-5): 26.5 µM (inactive) | GI50 (SK-OV-3): 13.8 µM (inactive) | GI50 (SN12C): > 100 µM (inactive) | GI50 (SNB-19): 34.7 µM (inactive) | GI50 (SNB-75): 81.5 µM (inactive) | GI50 (SR): > 100 µM (inactive) | GI50 (SW-620): > 10 µM (inactive) | GI50 (T47D): 15 µM (inactive) | GI50 (TK-10): 29.9 µM (inactive) | GI50 (U-251): 28.3 µM (inactive) | GI50 (UACC-257): > 100 µM (inactive) | GI50 (UACC-62): 29.2 µM (inactive) | GI50 (UO-31): > 10 µM (inactive)

Cc1cc(N)c2ccccc2[n+]1CCCCCCCCCCNc1cc(C)[n+](CCCCCCCCCC[n+]2c(C)cc(N)c3ccccc32)c2ccccc12
GI50 (786-0): 0.547 µM (active) | GI50 (A549): 0.692 µM (active) | GI50 (ACHN): 0.964 µM (active) | GI50 (CAKI-1): 34.6 µM (inactive) | GI50 (CCRF-CEM): 0.52 µM (active) | GI50 (COLO 205): 0.375 µM (active) | GI50 (DU-145): 1.75 µM (inactive) | GI50 (EKVX): 14.6 µM (inactive) | GI50 (HCC 2998): 0.759 µM (active) | GI50 (HCT-116): 1.35 µM (inactive) | GI50 (HCT-15): 1.75 µM | GI50 (HOP-62): 0.929 µM (active) | GI50 (HT-29): 11.6 µM (inactive) | GI50 (IGROV-1): 1.35 µM (inactive) | GI50 (K562): 0.4 µM (active) | GI50 (KM12): 0.618 µM (active) | GI50 (LOX IMVI): 1.79 µM (inactive) | GI50 (M14): 0.746 µM (active) | GI50 (MCF7): 0.682 µM (active) | GI50 (MDA-MB-435): 0.427 µM (active) | GI50 (MDA-N): 0.333 µM (active) | GI50 (MOLT-4): 1.01 µM (active) | GI50 (NCI-H23): 0.516 µM (active) | GI50 (OVCAR-3): 1.56 µM (inactive) | GI50 (OVCAR-5): 1.49 µM (inactive) | GI50 (OVCAR-8): 1.61 µM (inactive) | GI50 (PC-3): 1.02 µM (active) | GI50 (RPMI-8226): 0.352 µM (active) | GI50 (SF-295): 1.32 µM (inactive) | GI50 (SK-MEL-28): 0.528 µM (active) | GI50 (SK-MEL-2): 1.41 µM (inactive) | GI50 (SK-MEL-5): 0.439 µM (active) | GI50 (SN12C): 0.293 µM (active) | GI50 (SW-620): 2.23 µM (inactive) | GI50 (U-251): 0.406 µM (active) | GI50 (UACC-62): 0.608 µM (active) | GI50 (UO-31): 1.86 µM (inactive)
